# Reference: patent US8735417B2, “Aminopyrimidines as Syk inhibitors” (Merck Sharp & Dohme Corp., priority 2009, dated 2014)
# Target: T1, recombinant human GST-SYK (Homo sapiens, UniProt P43405)
# T1 construct: purchased Carna Biosciences 08-176
# Experiment: Homogeneous Time-Resolved Fluorescence (HTRF) assay for the recombinant human SYK enzyme
# Assay type: biochemical
# Details: recombinant human GST-SYK 5 pM, ATP 25 μM, 10-dose titration; read-out: rhSYK Activity (IC50)
# Method: Homogeneous Time-Resolved Fluorescence (HTRF) Assay for the Recombinant Human SYK Enzyme:
# A recombinant GST-hSYK fusion protein was used to measure potency of compounds to inhibit human SYK activity. The recombinant human GST-SYK (Carna Biosciences #08-176) (5 pM final concentration) was incubated with various concentrations of the inhibitor diluted in DMSO (0.1% final concentration) for 10 minutes at room temperature in 15 mM Tris-HCl (pH 7.5), 0.01% tween 20, 2 mM DTT in 384 well plate format. To initiate the reaction the biotinylated substrate peptide (250 nM final concentration) that contains the phosphorylation site for SYK was added with magnesium (5 mM final concentration) and ATP (25 μM final concentration). Final volume of the reaction was 10 μL. Phosphorylation of the peptide was allowed to proceed for 45′ at room temperature. To quench the reaction and detect the phosphorylated product, 2 nM of a Europium-atiti-phosphotyrosine antibody (Perkin Elmer #AD0161) and 70 nM SA-APC (Perkin-Elmer #CR130-100) were added together in 15 mM Tris pH 7.5, 40 mM EDTA, 0.01% tween 20. Final volume of the quenching solution was 10 μL. The resulting HTRF signal was measured after 30 minutes on a EnVision (Perkin-Elmer) reader using a time-resolved fluorescence protocol.
row,Compound,IC50
1,FC(F)(F)c1ccnc(Nc2cccc(-c3cnc(NC4CCCC4)s3)c2)n1 [Example 43],100 to 1000 nM
2,COC(=O)c1ccc(N(C)c2ncc(-c3cccc(Nc4nccc(C(F)(F)F)n4)c3)s2)cc1 [Example 30],100 to 1000 nM
3,C[C@@H](Nc1ncc(-c2cccc(Nc3nccc(C(F)(F)F)n3)c2)s1)C1CCCCC1 [Example 65],1000 to 10000 nM
4,OCC(CO)Nc1ncc(-c2cccc(Nc3nccc(C(F)(F)F)n3)c2)s1 [Example 11],≤ 100 nM
5,Cn1cncc1CNc1ncc(-c2cccc(Nc3nccc(C(F)(F)F)n3)c2)s1 [Example 22],≤ 100 nM
6,CCC(O)CNc1ncc(-c2cccc(Nc3nccc(C(F)(F)F)n3)c2)s1 (centres unmarked) [Example 9],≤ 100 nM
7,Cc1cc(CNc2ncc(-c3cccc(Nc4nccc(C(F)(F)F)n4)c3)s2)nn1C [Example 67],≤ 100 nM
8,Cc1nn(C)c(C)c1CNc1ncc(-c2cccc(Nc3nccc(C(F)(F)F)n3)c2)s1 [Example 79],≤ 100 nM
9,CCC(CO)Nc1ncc(-c2cccc(Nc3nccc(C(F)(F)F)n3)c2)s1 (centres unmarked) [Example 10],≤ 100 nM
10,CC(Cc1cnccn1)Nc1ncc(-c2cccc(Nc3nccc(C(F)(F)F)n3)c2)s1 (centres unmarked) [Example 56],≤ 100 nM
11,OC(CNc1ncc(-c2cccc(Nc3nccc(C(F)(F)F)n3)c2)s1)C(F)F (centres unmarked) [Example 13],≤ 100 nM
12,FC(F)CNc1ncc(-c2cccc(Nc3nccc(C(F)(F)F)n3)c2)s1 [Example 38],≤ 100 nM
13,OCCCCCCN(Cc1ccccc1)c1ncc(-c2cccc(Nc3nccc(C(F)(F)F)n3)c2)s1 [Example 26],100 to 1000 nM
14,Cc1cc(C)n(CCNc2ncc(-c3cccc(Nc4nccc(C(F)(F)F)n4)c3)s2)n1 [Example 63],100 to 1000 nM
15,FC(F)(F)c1ccnc(Nc2cccc(-c3cnc(NCCc4cccs4)s3)c2)n1 [Example 40],100 to 1000 nM
16,Cc1cc(Nc2nccc(C(F)(F)F)n2)cc(-c2cnc(N(C)CCO)s2)c1 [Example 27],≤ 100 nM
17,OC1COCC1Nc1ncc(-c2cccc(Nc3nccc(C(F)(F)F)n3)c2)s1 (centres unmarked) [Example 12],≤ 100 nM
18,CCCC[C@@H](CO)Nc1ncc(-c2cccc(Nc3nccc(C(F)(F)F)n3)c2)s1 [Example 74],≤ 100 nM
19,Cc1ccsc1CNc1ncc(-c2cccc(Nc3nccc(C(F)(F)F)n3)c2)s1 [Example 75],1000 to 10000 nM
20,C=CCN(CC=C)c1ncc(-c2cccc(Nc3nccc(C(F)(F)F)n3)c2)s1 [Example 25],≤ 100 nM
21,CC(Nc1ncc(-c2cccc(Nc3nccc(C(F)(F)F)n3)c2)s1)c1ccccc1 (centres unmarked) [Example 55],100 to 1000 nM
22,CC(CO)Nc1ncc(-c2cccc(Nc3nccc(C(F)(F)F)n3)c2)s1 (centres unmarked) [Example 32],≤ 100 nM
23,OCCCNc1ncc(-c2cccc(Nc3nccc(C(F)(F)F)n3)c2)s1 [Example 15],≤ 100 nM
24,CSCCNc1ncc(-c2cccc(Nc3nccc(C(F)(F)F)n3)c2)s1 [Example 44],≤ 100 nM
25,Cn1cc(CNc2ncc(-c3cccc(Nc4nccc(C(F)(F)F)n4)c3)s2)cn1 [Example 62],≤ 100 nM
26,Cc1cc(CNc2ncc(-c3cccc(Nc4nccc(C(F)(F)F)n4)c3)s2)n(C)n1 [Example 69],≤ 100 nM
27,COCC(O)CNc1ncc(-c2cccc(Nc3nccc(C(F)(F)F)n3)c2)s1 (centres unmarked) [Example 50],≤ 100 nM

# The next lines start with the values.
row,IC50,Compound
1,≤ 100 nM,CCNC(=O)Nc1cc(Nc2nccc(C(F)(F)F)n2)cc(-c2cnc(NCCO)s2)c1 [Example 188]
2,≤ 100 nM,Cc1cc(Nc2nccc(C(F)(F)F)n2)cc(-c2cnc(N3CCC(CC(N)=O)CC3)s2)c1 [Example 148]
3,100 to 1000 nM,FC(F)(F)c1ccnc(Nc2cccc(-c3cnc(N4CCOC(C(F)(F)F)C4)s3)c2)n1 (centres unmarked) [Example 121]
4,≤ 100 nM,"Cc1cc(Nc2nccc(C3CCCCC3)n2)cc(-c2cnc(N3CCCNC(=O)C3)s2)c1 [Example 196, 4-(5-{3-[(4-cyclohexylpyrimidin-2-yl)amino]-5-methylphenyl}-1,3-thiazol-2-yl)-1,4-diazepan-2-one]"
5,≤ 100 nM,Cc1cc(Nc2nccc(C(F)(F)F)n2)cc(-c2cnc(N3CCn4ccnc4C3)s2)c1 [Example 173]
6,≤ 100 nM,Cc1cc(Nc2nccc(OCCO)n2)cc(-c2cnc(N3CCCNC(=O)C3)s2)c1 [Example 218]
7,100 to 1000 nM,O=C(COC1CCN(c2ncc(-c3cccc(Nc4nccc(C(F)(F)F)n4)c3)s2)CC1)NC1CC1 [Example 136]
8,≤ 100 nM,"Cc1cc(Nc2nccc(C(F)(F)F)n2)cc(-c2sc(N3CCCNC(=O)C3)nc2Cl)c1 [Example 228, 4-[4-chloro-5-(3-methyl-5-{[4-(trifluoromethyl)pyrimidin-2-yl]amino}phenyl)-1,3-thiazol-2-yl]-1,4-diazepan-2-one]"
9,≤ 100 nM,"CCNC(=O)Nc1cc(Nc2nccc(C(F)(F)F)n2)cc(-c2cnc(N3CCCNC(=O)C3)s2)c1 [Example 185, 1-ethyl-3-(3-[2-(3-oxo-1,4-diazepan-1-yl)-1,3-thiazol-5-yl]-5-{[4-(trifluoromethyl)pyrimidin-2-yl]amino}phenyl)urea]"
10,1000 to 10000 nM,Cc1cc(Nc2nccc(C(F)(F)F)n2)cc(-c2cnc(N3CCC(c4ccc(S(C)(=O)=O)cc4)CC3)s2)c1 [Example 146]
11,100 to 1000 nM,OC1(c2ccccc2)CCN(c2ncc(-c3cccc(Nc4nccc(C(F)(F)F)n4)c3)s2)C1 (centres unmarked) [Example 159]
12,≤ 100 nM,"Cc1cc(Nc2nccc(OC3CCNCC3)n2)cc(-c2cnc(N3CCCNC(=O)C3)s2)c1 [Example 215, 4-[5-(3-methyl-5-{[4-(piperidin-4-yloxy)pyrimidin-2-yl]amino}phenyl)-1,3-thiazol-2-yl]-1,4-diazepan-2-one]"
13,1000 to 10000 nM,CC(C)(C)OC(=O)NCC1CCN(c2ncc(-c3cccc(Nc4nccc(C(F)(F)F)n4)c3)s2)CC1 [Example 138]
14,≤ 100 nM,OC1CCN(c2ncc(-c3cccc(Nc4nccc(C(F)(F)F)n4)c3)s2)C1 (centres unmarked) [Example 158]
15,≤ 100 nM,CC(=O)N1CCCN(c2ncc(-c3cccc(Nc4nccc(C(F)(F)F)n4)c3)s2)CC1 [Example 169]
16,≤ 100 nM,Cc1cc(Nc2ncc(C3CC3)cn2)cc(-c2cnc(N3CCCNC(=O)C3)s2)c1 [Example 202]
17,≤ 100 nM,OCC1C2CN(c3ncc(-c4cccc(Nc5nccc(C(F)(F)F)n5)c4)s3)CC12 (centres unmarked) [Example 171]
18,≤ 100 nM,Cc1cc(Nc2nccc(C(F)(F)F)n2)cc(-c2cnc(NCc3cc(C)on3)s2)c1 [Example 97]
19,≤ 100 nM,Cc1cc(Nc2nccc(C(F)(F)F)n2)cc(-c2cnc(NCCc3c[nH]c4ccccc34)s2)c1 [Example 112]

row,IC50,Compound
1,≤ 100 nM,Cc1cc(Nc2nccc(OCc3ccccc3)n2)cc(-c2cnc(N3CCCNC(=O)C3)s2)c1 [Example 208]
2,≤ 100 nM,"COc1nc(Nc2cc(C)cc(-c3cnc(N4CCCNC(=O)C4)s3)c2)ncc1Cl [Example 210, 4-(5-{3-[(5-chloro-4-methoxypyrimidin-2-yl)amino]-5-methylphenyl}-1,3-thiazol-2-yl)-1,4-diazepan-2-one]"
3,≤ 100 nM,CN(CCO)c1ncc(-c2cc(N)cc(Nc3nccc(C(F)(F)F)n3)c2)s1 [Example 189]
4,≤ 100 nM,FC(F)(F)c1ccnc(Nc2cccc(-c3cnc(N4CCOCC4)s3)c2)n1 [Example 119]
5,≤ 100 nM,CC(=O)NCCC1CCN(c2ncc(-c3cc(C)cc(Nc4nccc(C(F)(F)F)n4)c3)s2)CC1 [Example 150]
6,≤ 100 nM,"C=Cc1ccnc(Nc2cc(C)cc(-c3cnc(N4CCCNC(=O)C4)s3)c2)n1 [Example 199, 4-(5-{3-[(4-ethenylpyrimidin-2-yl)amino]-5-methylphenyl}-1,3-thiazol-2-yl)-1,4-diazepan-2-one]"
7,≤ 100 nM,Cc1cc(Nc2nccc(C(F)(F)F)n2)cc(-c2cnc(NCCc3c[nH]cn3)s2)c1 [Example 93]
8,≤ 100 nM,O=C1CN(c2ncc(-c3cccc(Nc4nccc(C(F)(F)F)n4)c3)s2)CCCN1 [Example 166]
9,100 to 1000 nM,"Cc1cc(Nc2ncc(F)c(OC3CCOC3)n2)cc(-c2cnc(N3CCCNC(=O)C3)s2)c1 (centres unmarked) [Example 216, 4-[5-(3-{[5-fluoro-4-(tetrahydrofuran-3-yloxy)pyrimidin-2-yl]amino}-5-methylphenyl)-1,3-thiazol-2-yl]-1,4-diazepan-2-one]"
10,100 to 1000 nM,OC1(C(F)(F)F)CN(c2ncc(-c3cccc(Nc4nccc(C(F)(F)F)n4)c3)s2)C1 [Example 155]
11,≤ 100 nM,Cc1cnc(Nc2cc(C)cc(-c3cnc(N4CCCNC(=O)C4)s3)c2)nc1 [Example 203]
12,100 to 1000 nM,FC(F)(F)c1ccnc(Nc2cccc(-c3cnc(N4CCCC4c4ccccc4)s3)c2)n1 (centres unmarked) [Example 161]
13,≤ 100 nM,Cc1cc(Nc2nccc(OC3CCOC3)n2)cc(-c2cnc(N3CCCNC(=O)C3)s2)c1 (centres unmarked) [Example 214]
14,≤ 100 nM,N[C@H]1CCN(c2ncc(-c3cccc(Nc4nccc(C(F)(F)F)n4)c3)s2)C1 [Example 163]
15,≤ 100 nM,NC1CCN(c2ncc(-c3cccc(Nc4nccc(C(F)(F)F)n4)c3)s2)CC1 [Example 143]
16,≤ 100 nM,Cc1cc(Nc2nccc(C#N)n2)cc(-c2cnc(N3CCCNC(=O)C3)s2)c1 [Example 204]
17,≤ 100 nM,Cc1cc(Nc2nccc(C(F)(F)F)n2)cc(-c2cnc(NC[C@H]3CC[C@@H](N)CC3)s2)c1 [Example 98]
18,≤ 100 nM,Cc1cc(Nc2nccc(C(F)(F)F)n2)cc(-c2cnc(NCCC3(O)CCN(C)CC3)s2)c1 [Example 116]
19,≤ 100 nM,CC(=O)Nc1cc(Nc2nccc(C(F)(F)F)n2)cc(-c2cnc(NCCO)s2)c1 [Example 187]
